Measured values published in BindingDB's records for doi:10.1016/S0960-894X(01)80270-5 (1994).

molecular target: T1, Neutrophil elastase (Homo sapiens, UniProt P08246); assay: Inhibitory activity against human leukocyte elastase using MeO-Suc-Ala-Ala-Pro-Val-pNA (416 uM) as substrate
T1 sequence (P08246 whole entry): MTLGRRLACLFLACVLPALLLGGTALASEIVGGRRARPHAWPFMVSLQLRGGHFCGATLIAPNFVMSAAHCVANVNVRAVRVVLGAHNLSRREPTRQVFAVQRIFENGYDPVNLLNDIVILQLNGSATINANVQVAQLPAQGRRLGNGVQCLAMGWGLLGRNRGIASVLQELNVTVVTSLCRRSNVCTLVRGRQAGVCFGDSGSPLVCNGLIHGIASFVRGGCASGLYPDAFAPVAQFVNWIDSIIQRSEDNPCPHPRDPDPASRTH

IC50, > 1000 µM:
COc1ccc2c(c1)c1c(O)oc(=O)nc1n2CCc1ccccc1 [6-Methoxy-9-phenethyl-1,9-dihydro-[1,3]oxazino[4,5-b]indole-2,4-dione]

molecular target: T1, Neutrophil elastase; assay: ChEBML_86533
Description: Inhibitory activity against human leukocyte elastase using MeO-Suc-Ala-Ala-Pro-Val-pNA (416 uM) as substrate;No Inhibition

IC50, > 1000 µM:
CCCCn1c(C)c(C)c2c(O)oc(=O)nc21 [1-Butyl-2,3-dimethyl-1,7-dihydro-5-oxa-1,7-diaza-indene-4,6-dione], Cc1c(C)n(C2CCCCC2)c2nc(=O)oc(O)c12 [1-Cyclohexyl-2,3-dimethyl-1,7-dihydro-5-oxa-1,7-diaza-indene-4,6-dione], COCCn1c2ccc(OC)cc2c2c(O)oc(=O)nc21 [6-Methoxy-9-(2-methoxy-ethyl)-1,9-dihydro-[1,3]oxazino[4,5-b]indole-2,4-dione], COc1ccc2c(c1)c1c(O)oc(=O)nc1n2Cc1ccccn1 [6-Methoxy-9-pyridin-2-ylmethyl-1,9-dihydro-[1,3]oxazino[4,5-b]indole-2,4-dione], COc1ccc2c(c1)c1c(O)oc(=O)nc1n2CC(OC)OC [9-(2,2-Dimethoxy-ethyl)-6-methoxy-1,9-dihydro-[1,3]oxazino[4,5-b]indole-2,4-dione], COc1ccc2c(c1)c1c(O)oc(=O)nc1n2C1CCCCC1 [9-Cyclohexyl-6-methoxy-1,9-dihydro-[1,3]oxazino[4,5-b]indole-2,4-dione], COCCn1c2ccc(OC(C)=O)cc2c2c(O)oc(=O)nc21 [Acetic acid 9-(2-methoxy-ethyl)-2,4-dioxo-1,2,4,9-tetrahydro-[1,3]oxazino[4,5-b]indol-6-yl ester]
